Assay results published in patent publication US5198568A, “Compounds useful in enzymatic resolution systems and their preparation” (priority 1991, dated 1993).
Counter-ions that a name gives are not always drawn.

Columns and labels:
Assay type in all cases: biochemical
[1] = test system: protease Prozyme 6 from Aspergillus oryzae (Amano, Enzyme F); experiment: Asymmetric hydrolysis in an extractive membrane reactor, enzyme not associated with the membrane, Enzyme F
Source text: Hexane was recirculated through the lumen or bores of the fibers in the module. The aqueous solution in the shell contained the enzyme and ester. While the cellulose membrane is water-wet, the membrane rejects the macromolecular enzyme (molecular weight 18,000). Therefore, the enzyme resides solely in the aqueous ester solution. As the ibuprofen acid was formed, it was extracted into the hexane phase, thereby reducing the effect of product (ibuprofen acid) inhibition on the activity of the enzyme.
The aqueous phase used to extract the ibuprofen acid from hexane in this module contained 0.1M sodium carbonate buffer at pH 9.5. The pH was maintained at this value by the addition of 8.22M sodium hydroxide as required.
In this Example, the aqueous stream in the extractive membrane reactor module consisted of a solution of the sulfomethyl ester of ibuprofen (1), which solution was prepared by adding 32.51 gm of the sodium salt of the ester (at 75% chemical purity) to 1000 ml of 0.1M sodium phosphate buffer (pH 7.0). The reaction was started by adding 2 gm of the protease (F) from the fungus Aspergillus oryzae (from Amano Enzyme Corporation, Prozyme 6, 60,000 units per gm of solid). […]
The optical rotation of the recovered product was measured by polarimetry; the experimentally determined value for [α]D was -56.7° (measured at c=0.815 in ethanol), thereby indicating the R isomer of ibuprofen. The sample was also analyzed by chiral HPLC using a Bakerbond DNBPG (covalent) column (4.6×250 mm), with 96.9% hexane:3.0% 2-propanol:0.1% acetonitrile as the mobile phase at 2 ml/min after derivatization with naphthalene amine. […] The optical purity or enantiomeric excess of this R ibuprofen sample as determined by this chiral HPLC procedure was 99.3% (i.e., enantiomeric excess of R ibuprofen).
The aqueous phase at pH 7.0 (as recovered from the extractive membrane reactor) was mixed with 280 gm of sodium chloride to salt out the remaining unconverted ester. […] The optical rotation (as measured by polarimetry) was [α]D =+57.4° (c=1.29 in ethanol), indicating the S isomer of ibuprofen. […]

[2] = test system: Protease XXIII from Aspergillus oryzae (Sigma, Enzyme A); experiment: Homogeneous aqueous enzymatic resolution (ester hydrolysis), Enzyme A; details: acid product; 100 mg enzyme A, pH 7.0, 20-22 C, 20 hours
Experimental: No further purification was performed.

[3] = test system: protease Prozyme 6 from Aspergillus oryzae (Amano, Enzyme F); experiment: Homogeneous aqueous enzymatic resolution (ester hydrolysis), Enzyme F
Experimental: (§1) The enzymatic reaction mixtures were capped and briefly shaken until all the substrate had dissolved, and the enzyme had completely dissolved or dispersed. […] Evaporation of the ether left a white solid. Rotations were measured at c=1 in CHCl3.
as §1
The reaction was started by adding 100 mg of the protease (F) from the fungus Aspergillus oryzae (from Amano Enzyme Corporation, Prozyme 6, 60,000 units per mg of solid).
After 20 hours at room temperature, the solution was acidified to pH 2 and extracted with 3 volumes of diethyl ether. The aqueous phase was saved for subsequent workup. The ether phase was washed with two volumes of distilled water and then one volume of saturated sodium chloride, and then it was dried over MgSO4 and subsequently evaporated to dryness. The resolved ibuprofen product recovered was 930 mg of white powder, indicating 45% conversion of racemic ester to acid. The optical rotation was -0.580° (measured at c=1 in ethanol), indicating the R isomer of ibuprofen.
35 mg of protease Enzyme F, as the commercial preparation Prozyme 6, were added to the aqueous solution. The reaction flask was capped, and briefly shaken until all the enzyme had dissolved or dispersed. […] The resulting mixture was diluted with one volume of water and was extracted with diethyl ether (2 times 200 ml). The ether layers were combined and backwashed with water (2 times 200 ml), saturated NaCl solution (200 ml), and then dried over MgSO4.
In this control run, a 0.5M ester solution of (1) was prepared in 325 ml of 0.1M sodium phosphate buffer (pH 7.0). The reaction was started by adding 3 gm of the above enzyme (F). The pH was controlled at 7.0 with 8.22M sodium hydroxide. After 6.49 hours at 30 ° C., 6.63 ml of hydroxide were added, indicating 37.7% conversion. The reaction was allowed to continue overnight and, after 23.1 hours, a total of 7.2 ml of sodium hydroxide were added, indicating 40.9% conversion.

[4] = test system: protease Prozyme 6 from Aspergillus oryzae (Amano, Enzyme F); experiment: Asymmetric hydrolysis in an extractive dispersion reactor, Enzyme F; details: 100 mg Prozyme 6, 3.38 gm ester in 100 ml buffer pH 7.0 plus 100 ml hexane, room temperature, 3.5 hours
Experimental: In this Example, the hexane was dispersed in the reaction vessel to extract the inhibitory ibuprofen acid as it is formed. The reaction was started by adding 100 mg of the protease from the fungus Aspergillus oryzae (from Amano Enzyme Corporation, Prozyme 6, 60,000 units per mg of solid).
After 3.5 hours at room temperature with vigorous stirring, the solution was acidified to pH 2 and extracted with 2 volumes of hexane. The aqueous phase was saved for subsequent workup. The hexane phase was dried over MgSO4 and evaporated to dryness. The resolved ibuprofen product so recovered consisted of 490 mg of white powder, indicating 24% conversion. The optical rotation was -0.568° (c=1.015 in ethanol), indicating the R isomer of ibuprofen.

[5] = test system: lipase from Candida cylindracea (Meito Sangyo, Lipase OF); experiment: Activity of the carrier lipase against the ester
[6] = molecular target: T1, Protease XXVII, Nagarse (Sigma, Enzyme D) (Bacillus amyloliquefaciens, UniProt P00782); experiment: Homogeneous aqueous enzymatic resolution (ester hydrolysis), Enzyme D; details: 100 mg enzyme D, 10 mmol ester in 100 ml 0.2 M phosphate buffer pH 7.0, 20-22 C, 20 hours
T1 construct: purchased Sigma
T1 sequence (P00782 108-382): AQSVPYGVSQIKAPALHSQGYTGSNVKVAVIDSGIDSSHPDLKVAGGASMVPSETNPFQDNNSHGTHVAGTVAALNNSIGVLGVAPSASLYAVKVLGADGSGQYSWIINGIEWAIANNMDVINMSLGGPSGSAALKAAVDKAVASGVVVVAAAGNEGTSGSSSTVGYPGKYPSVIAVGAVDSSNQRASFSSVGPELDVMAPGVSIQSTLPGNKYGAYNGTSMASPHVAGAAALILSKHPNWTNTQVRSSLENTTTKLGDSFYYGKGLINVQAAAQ

[7] = molecular target: T1, Protease XXVII, Nagarse (Sigma, Enzyme D); experiment: pH-stat rate of hydrolysis of single enantiomers, Enzyme D; details: 50 mM single enantiomer, 50 mM buffer pH 7.6, enzyme D
Experimental: (§2) 15 ml of a solution containing one enantiomer of the ester at a concentration of 50 mM, and Na3 PO4 buffer at 50 mM and pH 7.6 was observed using a pH stat device. 0.1 ml of a 50 mg/ml solution of enzyme D, made up from the commercially available preparation in 50 mM Na3 PO4 buffer at pH 7.6, were added. Rates of hydrolysis of both enantiomers of the ester compound were determined for the enzyme. The ratio of the rates of hydrolysis for the two enantiomers for the two enantiomers with respect to the enzyme indicate the stereospecificity of that enzyme's hydrolytic action on the racemic mixture of the ester. No evidence for the hydrolysis of the thioacetyl ester portion of the substrate molecule was found.

[8] = test system: Protease XXIII from Aspergillus oryzae (Sigma, Enzyme A); experiment: pH-stat rate of hydrolysis of single enantiomers, Enzyme A; details: 50 mM single enantiomer, 50 mM buffer pH 7.6, enzyme A
Experimental: 15 ml of a solution containing one enantiomer of the ester at a concentration of 50 mM, and Na3 PO4 buffer at 50 mM and pH 7.6 was observed using a pH stat device. 0.1 ml of a 50 mg/ml solution of enzyme A, made up from
Rates of hydrolysis of both enantiomers of the ester compound were
determined for the enzyme. The ratio of the rates of hydrolysis for the
two enantiomers for the two enantiomers with respect to the enzyme
indicate the stereospecificity of that enzyme's hydrolytic action on the […]

[9] = molecular target: T2, Protease VIII, Subtilopeptidase A (subtilisin Carlsberg) (Sigma, Enzyme B) (Bacillus licheniformis, UniProt P00780); experiment: pH-stat rate of hydrolysis of single enantiomers, Enzyme B; details: 50 mM single enantiomer, 50 mM buffer pH 7.6, enzyme B
T2 sequence (P00780 106-379): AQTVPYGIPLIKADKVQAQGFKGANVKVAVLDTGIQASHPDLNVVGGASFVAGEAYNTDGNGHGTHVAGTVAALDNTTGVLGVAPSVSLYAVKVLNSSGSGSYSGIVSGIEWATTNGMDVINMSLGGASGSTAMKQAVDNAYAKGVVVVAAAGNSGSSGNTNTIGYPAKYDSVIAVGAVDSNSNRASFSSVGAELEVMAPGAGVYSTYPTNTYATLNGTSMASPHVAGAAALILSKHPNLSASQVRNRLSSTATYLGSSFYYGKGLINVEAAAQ
Experimental: 15 ml of a solution containing one enantiomer of the ester at a concentration of 50 mM, and Na3 PO4 buffer at 50 mM and pH 7.6 wa observed using pH stat device 0.1 ml of a 50 mg/ml solution of enzyme B, made up from
as §2, with “the” for “15 ml of a solution containing one enantiomer of the ester at a concentration of 50 mM, and Na3 PO4 buffer at 50 mM and pH 7.6 was observed using a pH stat device. 0.1 ml of a 50 mg/ml solution of enzyme D, made up from the”, “acetylthio” for “thioacetyl”

[10] = test system: Protease XXIV, bacterial protease (Sigma, Enzyme J); experiment: pH-stat rate of hydrolysis of single enantiomers, Enzyme J; details: 50 mM single enantiomer, 50 mM buffer pH 7.6, enzyme J
Experimental: as §2, with “Enzyme J,” for “enzyme D,”, “acetylthio” for “thioacetyl”

[11] = test system: Protease XIV from Streptomyces griseus (Sigma, Enzyme I); experiment: pH-stat rate of hydrolysis of single enantiomers, Enzyme I; details: 50 mM single enantiomer, 50 mM buffer pH 7.6, enzyme I
Experimental: as §2, with “solution of protease enzyme I,” for “solution of enzyme D,”, “protease enzyme I, made up” for “of enzyme D, made up”, “for the protease enzyme. The” for “for the enzyme. The”, “of the acetylthio ester portion” for “of the thioacetyl ester portion”

[12] = chiral HPLC, after 50% conversion

Row | SMILES | conversion of the racemic ester to ibuprofen acid ([1]; 2 gm Prozyme 6, 32.51 gm ester in 1000 ml 0.1M sodium phosphate pH 7.0, hexane extractant, room temperature, 6.3 hours) [%] | enantiomeric excess of R ibuprofen (acid product) [1, 12] [%] | enantiomeric excess of S ibuprofen (from unconverted ester hydrolyzed at pH 12) [1, 12] [%] | % e.e. [2] [%] | conversion of racemic ester to acid ([3]; 100 mg Prozyme 6 (F), 3.22 gm ester in 100 ml 0.2M sodium phosphate pH 7.0, room temperature, 20 hours) [%] | conversion ([3]; 0.5M ester, 3 gm enzyme F, pH 7.0, 30 C, after 23.1 hours, 500000 µM) [%] | conversion [4] [%] | activity of the lipase against the ester [5] | % CONVERSION [6] [%] | Rate of hydrolysis [7] [umols/hr/mg] | Rate of hydrolysis [8] [umols/hr/mg] | Rate of hydrolysis [9] [umols/hr/mg] | Rate of hydrolysis [10] [umols/hr/mg] | Rate of hydrolysis [11] [umols/hr/mg]
1 | CC(C)Cc1ccc(C(C)C(=O)OCS(=O)(=O)O)cc1 (racemic) [Compound 1, Sodium Salt of 4-Sulfomethyl Ester of 2-(4-Isobutylphenyl)propanoic Acid] | 50 | 99.3 | 98.9 | > 99 | 45 | 40.9 | 24 | inactive | 34.0 | – | – | – | – | –
2 | CC(=O)SC[C@@H](C)C(=O)OCS(=O)(=O)O [Compound 14, Potassium Salt of the Sulfomethyl Ester of D-(-)-S-3-Acetylthio-2-methylpropanoic Acid] | – | – | – | – | – | – | – | – | – | 27 | 5.3 | 65 | 61 | 63
3 | CC(=O)SC[C@H](C)C(=O)OCS(=O)(=O)O [Compound 15, Potassium Salt of the Sulfomethyl Ester of L-(+)-S-3-Acetylthio-2-methylpropanoic Acid] | – | – | – | – | – | – | – | – | – | 29 | 12 | 135 | 65 | 105
